Source: US8003783B2, “17B-hydroxysteroid dehydrogenase inhibitors” (Sterix Limited, priority 2004, dated 2011)
Where two headings read alike, the source gives them in different places.

Key:
[1] = biological target: T1, 17β-HSD1 (Homo sapiens, UniProt P14061); experiment: 17β-HSD Type I activity in T-47D cells (E1→E2); format: cell-based; conditions: for inhibition at 10 µM: T47D, read-out: % inhibition of 17β-HSD1 @ 10 μM
T1 construct: was measured in intact cell monolayers of T47D and MDA-MB-231 breast cancer cells respectively; endogenous in cells; host or cells: T-47D human breast cancer cells
T1 sequence (P14061 1-328): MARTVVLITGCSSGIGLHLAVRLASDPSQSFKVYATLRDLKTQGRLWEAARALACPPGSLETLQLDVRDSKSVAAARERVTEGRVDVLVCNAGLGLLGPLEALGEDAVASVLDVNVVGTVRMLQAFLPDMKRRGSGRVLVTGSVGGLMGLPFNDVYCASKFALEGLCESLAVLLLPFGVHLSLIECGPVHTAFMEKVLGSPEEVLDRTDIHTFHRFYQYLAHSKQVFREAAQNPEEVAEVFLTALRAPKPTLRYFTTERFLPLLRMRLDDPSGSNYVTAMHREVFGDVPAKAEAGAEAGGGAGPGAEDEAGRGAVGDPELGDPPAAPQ

[2] = biological target: T2, 17β-HSD2 (Homo sapiens, UniProt P37059); experiment: 17β-HSD Type II activity in MDA-MB-231 cells (E2→E1); format: cell-based; conditions: 10 μM; MDA-MB-231 cells, E2→E1; read-out: % inhibition of 17β-HSD2 @ 10 μM
T2 construct: was measured in intact cell monolayers of T47D and MDA-MB-231 breast cancer cells respectively; endogenous in cells; host or cells: MDA-MB-231 human breast cancer cells
T2 sequence (P37059 1-387): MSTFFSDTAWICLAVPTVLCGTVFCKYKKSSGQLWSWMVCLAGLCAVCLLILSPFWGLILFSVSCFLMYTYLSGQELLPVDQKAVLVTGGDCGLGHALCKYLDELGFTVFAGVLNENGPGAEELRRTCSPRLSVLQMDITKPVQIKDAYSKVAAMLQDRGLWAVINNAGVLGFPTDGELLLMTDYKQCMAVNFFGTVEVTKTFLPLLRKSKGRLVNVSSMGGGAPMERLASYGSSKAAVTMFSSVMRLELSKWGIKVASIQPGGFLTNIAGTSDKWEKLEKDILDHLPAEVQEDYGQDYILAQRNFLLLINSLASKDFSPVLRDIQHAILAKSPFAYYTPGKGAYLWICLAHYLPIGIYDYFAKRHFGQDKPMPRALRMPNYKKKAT

[3] = T-47D cells, E1→E2, read-out: IC50 (17β-HSD1)

Row | SMILES | inhibition at 10 µM ([1]; 10 μM, T-47D cells, E1→E2) [%] | inhibition at 10 µM [2] [%] | IC50 [1, 3] [nM] | IC50 [1] [nM] | % inhibition of 17β-HSD1 @ 10 μM ([1]; 10 μM, T-47D cells, E1→E2) [%]
1 | C[C@]12CCC3c4ccc(O)cc4CCC3C1C/C(=C\c1ccccn1)C2=O (some centres unmarked) [compound 319] | 23 | 16 | – | – | –
2 | COc1cc2c(cc1O)CCC1C2CC[C@]2(C)C(=O)C(CC(=O)NCc3cccnc3)CC12 (some centres unmarked) [compound 1191] | 96 | 1.2 | 290 | – | –
3 | C[C@]12CCC3c4ccc(OS(N)(=O)=O)cc4CCC3C1C/C(=C\c1ccccc1)[C@@H]2O (some centres unmarked) [compound 315] | 4 | 1 | – | – | –
4 | C[C@]12CCC3c4ccc(O)cc4CCC3C1CC(CC(=O)NCC1CCCO1)[C@@H]2O (some centres unmarked) [compound 668] | 63 | 25 | – | – | –
5 | C[C@]12CCC3c4ccc(OS(N)(=O)=O)cc4CCC3C1C/C(=C\c1cccnc1)C2=O (some centres unmarked) [compound 453] | 22 | 10 | – | – | –
6 | C[C@]12CCC3c4ccc(OS(N)(=O)=O)cc4CCC3C1C/C(=C\c1ccncc1)C2=O (some centres unmarked) [compound 452] | 28 | 11 | – | – | –
7 | C[C@]12CCC3c4ccc(O)cc4CCC3C1CC1C(C(F)(F)F)=NNC12O (some centres unmarked) [compound 947] | 83 | 2 | – | – | –
8 | C[C@]12CCC3c4ccc(O)cc4CCC3C1Cc1c2n[nH]c1C(F)(F)F (some centres unmarked) [compound 949] | 75 | 36 | – | – | –
9 | CN(C)c1ccc(/C=C2\CC3C4CCc5cc(O)ccc5C4CC[C@]3(C)C2=O)cc1 (some centres unmarked) [compound 477, 16-(4-Dimethylamino-benzylidene)-3-hydroxy-13-methyl-6,7,8,9,11,12,13,14,15,16-decahydro-cyclopenta[a]phenanthron-17-one] | 72 | 13 | – | – | –
10 | CC(C)/C=C1\CC2C3CCc4cc(O)ccc4C3CC[C@]2(C)C1=O (some centres unmarked) [compound 571] | 71 | 18 | – | – | –
11 | CCN(C)C(=O)C1CC2C3CCc4cc(O)ccc4C3CC[C@]2(C)[C@H]1O (some centres unmarked) [compound 800] | 79 | -6 | – | – | –
12 | CCc1cc2c(cc1O)CCC1C2CC[C@]2(C)C(=O)C(CC(=O)NCc3cccnc3)CC12 (some centres unmarked) [compound 1040] | – | -5 | – | 27 | –
13 | C[C@]12CCC3c4ccc(O)cc4CCC3C1C/C(=C\c1ccccc1)[C@@H]2O (some centres unmarked) [compound 313] | 26 | 5 | – | – | –
14 | C[C@]12CCC3c4ccc(O)cc4CCC3C1C/C(=C\c1ccc(C#N)cc1)[C@@H]2O (some centres unmarked) [compound 510] | 57 | 31 | – | – | –
15 | C[C@]12CCC3c4ccc(O)cc4CCC3C1C/C(=C\c1ccncc1)[C@@H]2O (some centres unmarked) [compound 324] | 81 | 3 | – | 4100 | 72
16 | CCNC(=O)CC1CC2C3CCc4cc(O)ccc4C3CC[C@]2(C)C1=O (some centres unmarked) [compound 744] | 84 | 2 | – | – | –
17 | CC(C)NC(=O)CC1CC2C3CCc4cc(O)ccc4C3CC[C@]2(C)C1=O (some centres unmarked) [compound 743] | 75 | 6 | – | – | –
18 | C[C@]12CCC3c4ccc(O)cc4CCC3C1CC(Cc1ccccn1)[C@@H]2O (some centres unmarked) [compound 567, 13-Methyl-16-pyridin-2-ylmethyl-7,8,9,11,12,13,14,15,16,17-decahydro-6H-cyclopenta[□]phenanthrene-3-17-diol] | 88 | 11 | – | – | –
19 | C[C@]12CCC3c4ccc(O)cc4CCC3C1C/C(=C\c1cccs1)C2=O (some centres unmarked) [compound 475] | 67 | 14 | – | – | –
20 | COC(=O)Cn1ncc2c1[C@@]1(C)CCC3c4ccc(O)cc4CCC3C1C2 (some centres unmarked) [compound 807] | 79 | 30 | – | – | –
21 | C[C@]12CCC3c4ccc(O)cc4CCC3C1CC(CC(=O)NCC1CCCO1)C2=O (some centres unmarked) [compound 671] | 91 | 21 | 380 | – | –
22 | CCN(C)C(=O)c1[nH]nc2c1CC1C3CCc4cc(O)ccc4C3CC[C@]21C (some centres unmarked) [compound 894] | 88 | 6 | – | – | –
23 | C[C@]12CCC3c4ccc(O)cc4CCC3C1C/C(=C\c1cccnc1)C2=O (some centres unmarked) [compound 320] | 44 | 10 | – | – | –
